The record followed here is article PMC7037447, “Syntheses of L-Rhamnose-Linked Amino Glycerolipids and Their Cytotoxic Activities against Human Cancer Cells” (Molecules, 2020).

As a reminder, the CC50 is the concentration that lowers cell viability or growth by half.

In data set [1] the test system is BT474 (hormone receptor positive breast cancer cells). The data set can be described thus: MTS cell viability assay, 48 h. It is filed as cell-based. The note with it: Homo sapiens, BT-474. As for the experimental part:
(§1) Concentrations of compound 3 between 6–15 µM were sufficient to kill all the triple negative cell lines with the exception of MDA-MB-453 where viability was inhibited by 60% at the highest concentration tested. 30 µM of 3 was required for complete loss of viability of the hormone sensitive breast cancer BT474 cell line.
(§2) The cell lines were cultured from frozen stocks originally obtained from ATCC (Manassas, VA, USA). MDA-MB-231, JIMT-1, DU145, MDA-MB-468, Hs578t and MDA-MB-453 were grown in DMEM medium supplemented with 10% FBS. BT-474 cells were grown in DMEM/F12 medium supplemented with 10% FBS. MiaPaCa2 was cultured in DMEM supplemented with 10% FBS and 2.5% horse serum. All the media contained penicillin/streptomycin. U-251 and U-87 in Eagle MEM supplemented by 10% FBS, 1% Non-essential amino acids, 1 mM sodium pyruvate and 2 mM glutamine. BT-549 was cultured in RPMI 1640 medium supplemented with 10% FBS.
(§3) The effects of the GAELs on the viability of the epithelial cancer cell lines were determined as previously described. Briefly, equal numbers of the cells were dispersed into 96-well plates. After 24 h, the cells were incubated with the compounds (0–30 µM) for 48 h. […] (20% v/v) was subsequently added and the plates were incubated for 1–4 h in a CO2 incubator followed by measurement of the medium at OD490 with a plate reader (Molecular Devices). […]

In data set [2] the test system is DU-145. As to conditions: DU-145, absence or presence of 40 µM QVD, 48 h. The protocol:
(§4) One of the hallmark features of cytotoxic GAELs is their ability to kill cancer cells via an apoptosis-independent mechanism. We evaluated whether the mechanism of action of 3 was similar to other GAELs.
(§5) Equal numbers of JIMT-1, or DU145 cells were dispersed into 96-well plates, and after 4 h the cells were treated with pan-caspase inhibitor QVD-OPh (40 µM). After 20 h, the cells were incubated with the varying concentration of the compounds ([…]) for 48 h. At the end of the incubation, the MTS assay was used to assess cell viability as described above.
(§6) DU-145 or JIMT-1 cell lines were treated with increasing concentrations of 3 or Adriamycin in the presence or absence of 40 µM QVD. Four hours after plating, cells were treated with QVD. After 20 h, the cells were incubated with 0–15 µM 3 or 0–4 µM Adriamycin for 48 h. Cell viability relative to vehicle control was measured by MTS assay.

The next data set deals with JIMT-1. As to conditions: JIMT-1, absence or presence of 40 µM QVD, 48 h. As for the experimental part: as §4, §5, §6
Data set [3] concerns DU-145. Briefly: MTS cell viability assay, 48 h. As to conditions: Homo sapiens; DU-145, 48 h, MTS; read-out: CC50. The format is cell-based, human. As for the experimental part:
(§7) The cells were incubated with increasing concentrations of the compounds (0–30 µM) for 48 h followed by assessment of cell viability using the MTS assay. […] This compound carries a primary amino group at the sn-3 position of the glycerolipid and L-rhamno sugar at the sn-2 position via an α-rhamnosidic linkage.
as §2
(§8) The effects of the GAELs on the viability of the epithelial cancer cell lines were determined as previously described. Briefly, equal numbers of the cells were dispersed into 96-well plates. After 24 h, the cells were incubated with the compounds (0–30 µM) for 48 h. MTS reagent [3-(4,5-dimethylthiazol-2-yl)-5-(3-carboxymethoxyphenyl)-2-(4-sulfophenyl)-2H-tetrazolium, inner salt; Promega, Madison, WI, USA] (20% v/v) was subsequently added and the plates were incubated for 1–4 h in a CO2 incubator followed by measurement of the medium at OD490 with a plate reader (Molecular Devices).

The subject of a further data set is MiaPaCa2. The data set can be described thus: MTS cell viability assay, 48 h. The format is cell-based, human. The note with it: Homo sapiens, MIA PaCa-2; MiaPaCa2, 48 h, MTS; read-out: CC50. The protocol: as §7, §2, §8
(In general: Tetrazolium dyes change colour on reduction, which living cells bring about.)

A further data set concerns MDA-MB-453. Briefly: MTS cell viability assay, 48 h. It is filed as cell-based, human. The protocol: as §1, §2, §3
The nature of the next data set: Hemolytic assay. It is filed as cell-based. As to conditions: sheep, ovine erythrocytes (washed suspension), pH 7.4, relative to 1% ammonium hydroxide = 100%, read-out: Highest hemolysis observed. As for the experimental part:
To further evaluate the membrane lytic properties of compound 3, we investigated its capacity to lyse ovine erythrocytes. The highest hemolysis observed with compound 3 was about 6.6% at 100 µM compared to the 1% ammonium hydroxide positive control (Figure 6).
The hemolytic activity of the GAEL analogs was evaluated using ovine erythrocyte. Sheep whole blood was collected from a slaughter house into a vessel containing disodium EDTA ([…]) in a buffered saline (10 mM Tris, 150 mM NaCl, pH 7.4). The erythrocytes were prepared and washed with buffered saline as previously reported. For the assay, the erythrocyte suspension, varying amounts of the GAEL drugs or vehicle were pipetted into 1.5 mL microcentrifuge tubes to give a final volume of 1500 µL and cell density of 2.5 × 10^8 cells/mL. The suspensions were incubated with gentle shaking in Eppendorf thermomixer for 30 min. […] 200 µL of the supernatant was dissolved in 1800 µL of 0.5% NH4OH and the optical density (OD) was recorded using 1 mL cuvette at 540 nm in a spectrophotometer. […] The % hemolysis was calculated using the optical density (OD) values as shown below in Equation (1):% hemolysis = (X − 0%)/(100% − 0%)(1) where X is the OD values of the drug(s) at varying concentration.
Figure 6 Hemolytic properties of GAEL 3 using freshly isolated ovine erythrocytes. […] The values were determined as % of control.

With `CCCCCCCCCCCCCCCCOCC(CN)OC1OC(C)C(O)C(O)C1O` [Compound 3, 3-Amino-1-O-hexadecyloxy-2R-(O–α-L-rhamnopyranosyl)-sn-glycerol], the CC50 in data set [1] turned out to be 14 µM; in the data set on DU-145 [3] it was 8.2 µM; in the data set with MiaPaCa2 it was 8.5 µM; in the data set with MDA-MB-453 (Homo sapiens, MDA-MB-453) it was 13.8 µM. Also, the “Effect of QVD on cytotoxicity” value with DU-145 [2] and with JIMT-1 was “no statistically significant differences” each time. In the data set with MDA-MB-453 (MDA-MB-453, at the highest concentration tested), the Viability inhibited stood at 60%. Besides, in “Hemolytic assay”, the hemolysis at 30 min, 100 µM was roughly 6.6%.
